Measurements published in patent publication US12377083B2 (WUHAN LL SCIENCE AND TECHNOLOGY DEVELOPMENT CO., LTD., priority 2019, dated 2025).

Tests used:
Format in all cases: cell-based
[1] = test system: A2058 (human melanoma cells); experiment: A2058 cell scratch (migration) assay with LPA; details: 10 μM LPA, scratch area at 24 h
Description: The activity of the compounds disclosed herein at the cell level in vitro is evaluated by A2058 (human melanoma cells, Beina Bio, BNCC341099) cell scratch assay. The inhibitory activity of the compounds against LPAR1 can be reflected by inhibition of cell scratch healing.
After the cell confluence reached 80%, the cell culture plate was taken out and the original medium was discarded. Serum-free medium was then added, and the cells were starved overnight in an incubator (37° C., 5% CO2). The cell culture plate was then taken out, and cell scratches were made along the diameter of the wells using a 200 μL pipette tip. The cell culture plate was then added with 500 μL of serum-free medium and then shaken gently to wash away the residual cells on the scratched surface, and this was repeated twice. The medium was discarded and 500 μL of 1% FBS medium containing the compound was then added, and the mixture was incubated at 37° C. for 30 min. […] Olympus CKX53 was used to observe the scratches, and MShot image analysis system was used to take pictures and measure the scratch area at 0 h. The plate was incubated in the incubator under the conditions of 37° C. and 5% CO2. 24 h later, the scratches were observed again with Olympus CKX53, and MShot image analysis system was used to take pictures and measure the scratch area at 24 h. Cell migration inhibition rate was calculated according to the following formula: […]

[2] = biological target: hLPAR1 (human lysophosphatidic acid receptor 1) (Homo sapiens, UniProt Q92633); experiment: FLIPR assay of intracellular calcium increase induced by activation of hLPAR1 expressed in CHO-K1 cells; details: CHO-K1 cells expressing hLPAR1, agonist oleoyl-L-α-lysophosphatidic acid 1 μM; read-out: LPAR1 IC50
Sequence of hLPAR1 (human lysophosphatidic acid receptor 1) (Q92633 whole entry): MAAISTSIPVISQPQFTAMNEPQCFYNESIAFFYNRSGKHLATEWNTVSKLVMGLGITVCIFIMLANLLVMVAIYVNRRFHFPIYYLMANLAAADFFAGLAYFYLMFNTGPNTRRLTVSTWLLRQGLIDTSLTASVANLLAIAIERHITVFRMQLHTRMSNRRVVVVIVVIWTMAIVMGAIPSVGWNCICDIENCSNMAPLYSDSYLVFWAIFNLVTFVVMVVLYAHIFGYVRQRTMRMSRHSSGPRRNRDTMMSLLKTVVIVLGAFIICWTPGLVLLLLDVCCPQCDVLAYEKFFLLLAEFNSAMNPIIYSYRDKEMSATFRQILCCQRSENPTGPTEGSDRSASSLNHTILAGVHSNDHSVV
Description: The antagonist property of the compounds disclosed herein was determined using the FLIPR (fluorescence imaging plate reader) method, wherein the compounds are inhibitors for the intracellular calcium increase induced by activation of hLPAR1 (human lysophosphatidic acid receptor 1, accession No. NM_001401.4) expressed in CHO-K1 cells (Chinese hamster ovary cells K1, ATCC).
Cells at 250,000 cells/mL were seeded into a 96-well plate (25,000 cells/well) 18-24 h prior to the FLIPR experiment and then incubated overnight in a cell incubator. […] Each well was added with 75 μL of […] Fluo-4 AM fluorescent dye (Thermo, F14202) and then the cells were subjected to dye-loading incubation at 37° C. for 1.0 h. The 96-well plate was then washed once with buffer, added with a buffer containing a test compound or a vehicle at 50 μL per well and then incubated for 30 min at room temperature. […] An agonist (oleoyl-L-α-lysophosphatidic acid sodium salt (Sigma, L7260)) at a final concentration of 1 μM or a vehicle (ultrapure water) was then added at 50 μL/well, fluorescence values were measured for 2 min at 1-second intervals, and finally the output fluorescence counts were analyzed.

[3] = In vitro cytotoxicity assay in HepG2 cells, CCK-8 method; details: human
Description: In vitro cytotoxicity assay for the compounds disclosed herein was performed in HepG2 cells using the CCK-8 method. HepG2 cells (Beina Bio) in the logarithmic growth phase were collected, the concentration of cell suspension was adjusted, and then the cells were plated on a 96-well cell culture plate at 50,000 cells/well. The cells were then incubated overnight in a cell incubator (5% CO2, 37° C.), and after 80-90% cell confluence was achieved, test compounds or vehicle (DMSO) at various concentration gradients were added after medium change. The resulting mixture was incubated in the cell incubator (5% CO2, 37° C.) for 48 h. After the treatment, the medium in the plate was discarded. The plate was washed twice with PBS, added with CCK-8 working solution (Beyotime) at 100 μL per well, and then incubated at 37° C. for 1.5 h away from the light. Absorbance at OD450 nm was measured for each well on a microplate reader, and CC50 value of each compound was analyzed and calculated.

Row | SMILES | Cell migration inhibition rate (%) [1] | IC50 [2] | CC50 at 48 h [3]
1 | CN(Cc1ccccc1)C(=O)OCc1ocnc1-c1ccc(O[C@H]2CCC[C@H](C(=O)O)C2)cc1 (racemic) [Compound 1, (+/−)-(1S,3S)-3-(4-(5-(((benzyl(methyl)carbamoyl)oxy)methyl)oxazol-4-yl)phenoxy)cyclohexane-1-carboxylic Acid] | C (C: 0-30%) | 300 to 10000 nM | > 200000 nM
2 | Cc1nc(-c2nsc(C)c2COC(=O)N(C)C2CCCC2)ccc1O[C@H]1CCC[C@H](C(=O)O)C1 (racemic) [Compound 39] | B (B: 30-50%) | < 50 nM | > 200000 nM
3 | Cc1nc(-n2cnc(C)c2COC(=O)N(C)C2CCCC2)ccc1O[C@H]1CCC[C@H](C(=O)O)C1 (racemic) [Compound 54] | B (B: 30-50%) | < 50 nM | > 200000 nM
4 | CN(C(=O)OCc1c(-c2ncc(O[C@H]3CCC[C@H](C(=O)O)C3)cn2)cnn1C)C1CCCC1 (racemic) [Compound 100, (+/−)-(1S,3S)-3-((2-(5-(((cyclopentyl(methyl)carbamoyl)oxy)methyl)-1-methyl-1H-pyrazol-4-yl)pyrimidin-5-yl)oxy)cyclohexane-1-carboxylic Acid] | B (B: 30-50%) | 300 to 10000 nM | > 200000 nM
5 | Cc1ccn(-c2ccc(O[C@H]3CCC[C@H](C(=O)O)C3)cc2)c1COC(=O)N(C)C1CCCC1 (racemic) [Compound 31] | B (B: 30-50%) | < 50 nM | > 200000 nM
6 | Cc1noc(-c2ccc(C3(C(=O)O)CC3)cc2)c1NC(=O)O[C@H](C)c1ccccc1 [Compound 3] | C (C: 0-30%) | 300 to 10000 nM | > 200000 nM
7 | CN(C(=O)OCc1c(-c2ccc(O[C@H]3CCC[C@H](C(=O)O)C3)c(CO)n2)cnn1C)C1CCC1 (racemic) [Compound 116, (+/−)-(1S,3S)-3-((6-(5-(((cyclobutyl(methyl)carbamoyl)oxy)methyl)-1-methyl-1H-pyrazol-4-yl)-2-(hydroxymethyl)pyridin-3-yl)oxy)cyclohexane-1-carboxylic Acid] | B (B: 30-50%) | 300 to 10000 nM | –
8 | Cc1onc(-c2cnc(O[C@H]3CCC[C@H](C(=O)O)C3)cn2)c1COC(=O)N(C)C1CCCC1 (racemic) [Compound 102] | A (A: 50-70%) | < 50 nM | –
9 | CN(C(=O)OCc1c(-c2ccc(O[C@H]3CCC[C@H](C(=O)O)C3)c(O)n2)cnn1C)C1CCCC1 (racemic) [Compound 114, (+/−)-(1S,3S)-3-((6-(5-(((cyclopentyl(methyl)carbamoyl)oxy)methyl)-1-methyl-1H-pyrazol-4-yl)-2-hydroxypyridin-3-yl)oxy)cyclohexane-1-carboxylic Acid] | C (C: 0-30%) | 300 to 10000 nM | –
10 | CN(C(=O)OCc1c(-c2ccc(O[C@H]3CCC[C@H](C(=O)O)C3)c(F)n2)cnn1C)C1CCC1 (racemic) [Compound 109, (+/−)-(1S,3S)-3-((6-(5-(((cyclobutyl(methyl)carbamoyl)oxy)methyl)-1-methyl-1H-pyrazol-4-yl)-2-fluoropyridin-3-yl)oxy)cyclohexane-1-carboxylic Acid] | A (A: 50-70%) | 50 to 300 nM | –
11 | COc1nn(C)c(COC(=O)N(C)C2CCCC2)c1-c1ccc(O[C@H]2CCC[C@H](C(=O)O)C2)c(C)n1 (racemic) [Compound 88, (+/−)-(1S,3S)-3-((6-(5-(((cyclopentyl(methyl)carbamoyl)oxy)methyl)-3-methoxy-1-methyl-1H-pyrazol-4-yl)-2-methylpyridin-3-yl)oxy)cyclohexane-1-carboxylic Acid] | C (C: 0-30%) | 50 to 300 nM | –
12 | CN(C(=O)OCc1c(-c2ccc(O[C@H]3CCC[C@H](C(=O)O)C3)c(C#N)n2)cnn1C)C1CCC1 (racemic) [Compound 112, (+/−)-(1S,3S)-3-((2-cyano-6-(5-(((cyclobutyl(methyl)carbamoyl)oxy)methyl)-1-methyl-1H-pyrazol-4-yl)pyridin-3-yl)oxy)cyclohexane-1-carboxylic Acid] | B (B: 30-50%) | 50 to 300 nM | –
13 | Cc1nc(-c2cnn(C)c2COC(=O)N(C)CC2COC2)ccc1O[C@H]1CCC[C@H](C(=O)O)C1 (racemic) [Compound 97] | C (C: 0-30%) | 300 to 10000 nM | –
14 | Cc1nc(-c2cnn(C)c2COC(=O)N(C)C2CCOC2)ccc1O[C@H]1CCC[C@H](C(=O)O)C1 (mixture of isomers) [Compound 93] | B (B: 30-50%) | 300 to 10000 nM | –
15 | CN(C(=O)OCc1c(-c2ccc(O[C@H]3CCC[C@H](C(=O)O)C3)c(F)n2)cnn1C)C1CC1 (racemic) [Compound 108, (+/−) (1S,3S)-3-((6-(5-(((cyclopropyl(methyl)carbamoyl)oxy)methyl)-1-methyl-1H-pyrazol-4-yl)-2-fluoropyridin-3-yl)oxy)cyclohexane-1-carboxylic Acid] | B (B: 30-50%) | 300 to 10000 nM | –
16 | CN(C(=O)OCc1c(-c2cnc(O[C@H]3CCC[C@H](C(=O)O)C3)c(O)n2)cnn1C)C1CCCC1 (racemic) [Compound 117] | B (B: 30-50%) | 300 to 10000 nM | –
17 | Cc1noc(-c2ccc(O[C@H]3CCC[C@H](C(=O)O)C3)cn2)c1COC(=O)N(C)C1CCCC1 (racemic) [Compound 35, (+/−)-(1S,3S)-3-((6-(4-(((cyclopentyl(methyl)carbamoyl)oxy)methyl)-3-methylisoxazol-5-yl)pyridin-3-yl)oxy)cyclohexane-1-carboxylic Acid] | B (B: 30-50%) | – | > 200000 nM
18 | CN(C(=O)COc1c(-c2ccc(O[C@H]3CCC[C@H](C(=O)O)C3)c(N3CCOCC3)n2)cnn1C)C1CCC1 (racemic) [Compound 115] | C (C: 0-30%) | 300 to 10000 nM | –
19 | Cc1nc(-c2cnn(C)c2COC(=O)N(C)CC2CCOC2)ccc1O[C@H]1CCC[C@H](C(=O)O)C1 (mixture of isomers) [Compound 98, (+/−)-(1S,3S)-3-((2-methyl-6-(1-methyl-5-(((methyl((tetrahydrofuran-3-yl)methyl)carbamoyl)oxy)methyl)-1H-pyrazol-4-yl)pyridin-3-yl)oxy)cyclohexane-1-carboxylic Acid] | C (C: 0-30%) | 300 to 10000 nM | –
20 | CN(C(=O)OCc1c(-c2cnc(O[C@H]3CCC[C@H](C(=O)O)C3)c(Cl)n2)cnn1C)C1CCCC1 [Compound 105] | B (B: 30-50%) | < 50 nM | –
21 | CN(C(=O)OCc1c(-c2ccc(O[C@H]3CCC[C@H](C(=O)O)C3)c(N)n2)cnn1C)C1CCC1 (racemic) [Compound 113, (+/−)-(1S,3S)-3-((2-amino-6-(5-(((cyclobutyl(methyl)carbamoyl)oxy)methyl)-1-methyl-1H-pyrazol-4-yl)pyridin-3-yl)oxy)cyclohexane-1-carboxylic Acid] | C (C: 0-30%) | 300 to 10000 nM | –
22 | CN(C(=O)OCc1c(-c2cnc(O[C@H]3CCC[C@H](C(=O)O)C3)c(C#N)n2)cnn1C)C1CCCC1 (racemic) [Compound 104, (+/−)-(1S,3S)-3-((3-cyano-5-(5-(((cyclopentyl(methyl)carbamoyl)oxy)methyl)-1-methyl-1H-pyrazol-4-yl)pyrazin-2-yl)oxy)cyclohexane-1-carboxylic Acid] | C (C: 0-30%) | < 50 nM | –
